Common to all, as to assay type: in vivo
One test deals with Kochia (Kochia scoparia). Briefly: Test A postemergence. The following applies: Bassia scoparia, post-emergence, 240 h, read-out: Plant response rating, Kochia; for pest or weed control at 125 g/ha: 125 g ai/ha, postemergence, visual injury after approximately 10 d, 0 to 100 scale (0 no effect, 100 complete control). A digest of the protocol: (§1)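 Visual injury scores from 0, no effect, to 100, complete control, were assigned versus untreated controls roughly 10 d after treatment in the greenhouse. Test chemicals, formulated with surfactant in a non-phytotoxic solvent, were applied to planted seeds as a preemergence soil spray or postemergence to one- to two-leaf plants 2 to 10 cm tall, in loam–sand soil.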

Test [1] deals with giant foxtail (Setaria faberii). Briefly: Test A postemergence. The following applies: Setaria faberi, post-emergence, 240 h, read-out: Plant response rating, Foxtail, Giant; for pest or weed control at 125 g/ha: 125 g ai/ha, postemergence, visual injury after approximately 10 d, 0 to 100 scale (0 no effect, 100 complete control). A digest of the protocol:
as §1

Test [2] has as its system wheat (Triticum aestivum). Nature of the test: Test A postemergence. The following applies: Triticum aestivum, post-emergence, 240 h, read-out: Plant response rating, Wheat; for plant injury at 125 g/ha: 125 g ai/ha, postemergence, visual injury after approximately 10 d, 0 to 100 scale (0 no effect, 100 complete control). An outline of the steps: as §1
Test [3] deals with Galium (catchweed bedstraw, Galium aparine). Briefly: Test A postemergence. The following applies: Galium, post-emergence, 240 h, read-out: Plant response rating, Galium; for pest or weed control at 125 g/ha: 125 g ai/ha, postemergence, visual injury after approximately 10 d, 0 to 100 scale (0 no effect, 100 complete control). A digest of the protocol:
as §1

In test [4] the test system is barnyardgrass (Echinochloa crus-galli). Briefly: Test A postemergence. The following applies: Echinochloa crus-galli, post-emergence, 240 h, read-out: Plant response rating, Barnyardgrass; for pest or weed control at 125 g/ha: 125 g ai/ha, postemergence, visual injury after approximately 10 d, 0 to 100 scale (0 no effect, 100 complete control). An outline of the steps: as §1

For test [5], the system named is ryegrass, Italian (Italian ryegrass, Lolium multiflorum). Briefly: Test A postemergence. As to conditions: Lolium multiflorum, post-emergence, 240 h, read-out: Plant response rating, Ryegrass, Italian; for pest or weed control at 125 g/ha: 125 g ai/ha, postemergence, visual injury after approximately 10 d, 0 to 100 scale (0 no effect, 100 complete control). A digest of the protocol:
as §1

Test [6] relates to blackgrass (Alopecurus myosuroides). Nature of the test: Test A postemergence. The following applies: Alopecurus myosuroides, post-emergence, 240 h, read-out: Plant response rating, Blackgrass; for pest or weed control at 125 g/ha: 125 g ai/ha, postemergence, visual injury after approximately 10 d, 0 to 100 scale (0 no effect, 100 complete control). A digest of the protocol: as §1

Test [7] deals with ragweed (common ragweed, Ambrosia elatior). Nature of the test: Test A postemergence. The following applies: Ambrosia artemisiifolia, post-emergence, 240 h, read-out: Plant response rating, Ragweed; for pest or weed control at 125 g/ha: 125 g ai/ha, postemergence, visual injury after approximately 10 d, 0 to 100 scale (0 no effect, 100 complete control). An outline of the steps: as §1

For another test, the system named is corn (Zea mays). Briefly: Test A postemergence. As to conditions: Zea mays, post-emergence, 240 h; for Corn plant response rating (crop injury, 0 = no effect, 100 = complete kill) at 125 g/ha: 125 g ai/ha, postemergence, visual injury after approximately 10 d, 0 to 100 scale (0 no effect, 100 complete control). An outline of the steps:
as §1

Test [8] relates to pigweed (Amaranthus retroflexus). Nature of the test: Test A postemergence. As to conditions: Amaranthus retroflexus, post-emergence, 240 h, read-out: Plant response rating, Pigweed; for pest or weed control at 125 g/ha: 125 g ai/ha, postemergence, visual injury after approximately 10 d, 0 to 100 scale (0 no effect, 100 complete control). An outline of the steps: as §1
In test [9] the test system is ducksalad (Heteranthera limosa). Nature of the test: Test B flooded paddy test. The following applies: Heteranthera limosa, Flood, 250 g ai/ha; scale of 0 to 100 where 0 is no effect and 100 is complete control; read-out: Ducksalad plant response rating. A digest of the protocol:
(§2)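 Percent control, visually estimated after 13–15 d in the greenhouse on a 0–100 basis, compares treated pots with untreated ones; compound was put into paddy water 3 cm above the soil when plants had two leaves.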

Test [10] has as its system barnyardgrass (Echinochloa crus-galli). Briefly: Test B flooded paddy test. The following applies: Echinochloa crus-galli, Flood, 250 g ai/ha; scale of 0 to 100 where 0 is no effect and 100 is complete control; read-out: Barnyardgrass plant response rating. An outline of the steps:
as §2

The subject of another test is rice (Oryra sativa). Briefly: Test B flooded paddy test. The following applies: Oryza sativa, Flood, 250 g ai/ha; scale of 0 to 100 where 0 is no effect and 100 is complete control; read-out: Rice plant response rating. An outline of the steps:
as §2

Test [11] concerns sedge, umbrella (small-flower umbrella sedge, Cyperus difformis). Nature of the test: Test B flooded paddy test. As to conditions: Cyperus difformis, Flood, 250 g ai/ha; scale of 0 to 100 where 0 is no effect and 100 is complete control; read-out: Sedge, Umbrella plant response rating. A digest of the protocol: as §2
Setting [12] is: Postemergence, 31 g ai/ha, visual injury after approx. 10 d, 0 to 100 scale, 0 no effect, 100 complete control.

As to `Cc1cc(F)cc([C@H]2CN(C)C(=O)[C@@H]2C(=O)Nc2cccc(F)c2C#N)c1` [Compound 800], the pest or weed control at 125 g/ha worked out at 0% in the test on Kochia (Kochia scoparia); 80% in test [1]; 30% in test [3]; 80% in [4]; 20% in test [5]; 20% in test [6]. The results for the pest or weed control at 125 g/ha in test [7] and in test [8] were 0% and 40%, respectively. The pest or weed control at 31 g/ha in the test on Kochia (Kochia scoparia) (setting [12]) was found to be 0%; in test [1] (setting [12]), 80%; in [3] (setting [12]), 0%; in [4] (setting [12]), 80%; in test [5] (setting [12]), 0%; in test [6] (setting [12]), 0%. For the same molecule, the pest or weed control at 31 g/ha in [7] (setting [12]) was found to be 0%; in [8] (setting [12]) it was 20%. Also, in test [2] (setting [12]), the plant injury at 31 g/ha amounted to 0%. The same molecule came in with a Corn plant response rating (crop injury, 0 = no effect, 100 = complete kill) at 125 g/ha with corn (Zea mays) of 20%. Besides, in the test with corn (Zea mays) (setting [12]), the Corn plant response rating (crop injury, 0 = no effect, 100 = complete kill) at 31 g/ha turned out to be 0%. In addition, the pest or weed control at 250 g/ha was determined as 95% in [9], 95% in test [10], 30% in the test with rice (Oryra sativa) and 0% in [11].
On to `CN1C[C@H](c2ccc(F)c(OC(F)(F)C(F)F)c2)[C@@H](C(=O)Nc2ccccc2F)C1=O` [Compound 740], for which the pest or weed control at 125 g/ha with Kochia (Kochia scoparia) was 40%; in [1], 90%; in test [3], 50%; in test [4], 90%; in test [5], 50%; in test [6], 30%. For the same molecule, the pest or weed control at 125 g/ha is 0% in test [7] and 40% in test [8]. Also, the plant injury at 125 g/ha in [2] turned out to be 50%. This molecule also showed a Corn plant response rating (crop injury, 0 = no effect, 100 = complete kill) at 125 g/ha in the test on corn (Zea mays) of 70%. Also, the pest or weed control at 250 g/ha was found to be 100% in test [9], 60% in test [10], 50% in the test on rice (Oryra sativa) and 0% in test [11].
Turning to `O=C1NC[C@H](c2csc3ccccc23)[C@H]1C(=O)Nc1ccccc1F` [Compound 750], the pest or weed control at 125 g/ha stood at 0% with Kochia (Kochia scoparia); 20% in test [1]; 0% in test [3]; 70% in test [4]; 0% in test [5]; 0% in [6]. For the same molecule, the pest or weed control at 125 g/ha in test [7] and in test [8] was 0% in each case. For the same molecule, the plant injury at 125 g/ha in [2] is 0%. Besides, in the test on corn (Zea mays), the Corn plant response rating (crop injury, 0 = no effect, 100 = complete kill) at 125 g/ha worked out at 0%. For the same molecule, the pest or weed control at 250 g/ha stood at 90% in test [9], 0% in test [10], 0% with rice (Oryra sativa) and 0% in test [11].

The record behind these values is patent US12077503B2, “Substituted cyclic amides and their use as herbicides” (FMC CORPORATION, priority 2015, dated 2024).
